Source: US20170362292A1, “S-Alkylated Hepcidin Peptides and Methods of Making and Using Thereof” (priority 2014, published 2017)
Read-outs that look alike come from different tables or passages of the source.

Assays:
[1] = biological target: T1, human ferroportin-GFP (Homo sapiens, UniProt Q9NP59); test: cellular assay based on Fpn degradation (HEK293:TREX-Fpn-GFP cells, flow cytometry); format: cell-based
T1 sequence (Q9NP59 1-571): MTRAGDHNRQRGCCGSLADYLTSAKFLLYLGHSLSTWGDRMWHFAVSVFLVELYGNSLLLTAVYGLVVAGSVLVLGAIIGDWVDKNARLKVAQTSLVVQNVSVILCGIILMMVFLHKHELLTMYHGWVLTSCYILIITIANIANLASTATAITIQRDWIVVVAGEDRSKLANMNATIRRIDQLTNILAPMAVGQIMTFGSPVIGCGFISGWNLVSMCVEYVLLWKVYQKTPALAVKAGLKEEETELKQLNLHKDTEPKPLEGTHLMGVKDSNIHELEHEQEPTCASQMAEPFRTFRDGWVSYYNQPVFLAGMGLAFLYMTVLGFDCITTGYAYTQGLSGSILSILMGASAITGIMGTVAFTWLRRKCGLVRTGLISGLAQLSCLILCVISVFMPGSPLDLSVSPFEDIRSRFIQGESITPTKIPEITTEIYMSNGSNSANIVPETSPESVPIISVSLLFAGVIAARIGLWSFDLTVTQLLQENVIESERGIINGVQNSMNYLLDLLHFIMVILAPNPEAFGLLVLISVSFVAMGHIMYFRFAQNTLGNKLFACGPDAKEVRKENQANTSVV
Procedure: The S-alkylated hepcidin peptides were tested in vitro using a previously described cellular assay based on Fpn degradation. See e.g., Nemeth, et al. (2006) Blood 107: 328. Briefly, HEK293:TREX-Fpn-GFP, a cell line stably transfected with the human ferroportin-GFP construct under the control of doxycycline-inducible promoter, was plated on poly-D-lysine-coated plates in the presence of 20 μM FAC. Fpn expression was induced with 500 ng/mL doxycycline treatment for 24 hours. Then, doxycycline was washed off, and cells were treated with peptides for 24 hours. Cells were then trypsinized and resuspended at 1×10^6 cells/mL, and the intensity of green fluorescence was analyzed by flow cytometry using FAC Scan (fluorescence activated cell scanner) Analytic Flow Cytometer (Becton Dickinson, San Jose, Calif.) with CellQuest version 3.3 software. Cells not induced with doxycycline to express Fpn-GFP were used to establish a gate to exclude background fluorescence. Cells induced with doxycycline, but not treated with any peptides, were used as the positive control. Each peptide treatment was repeated independently 3 to 6 times. […] Hydrophobicity may also play a role, as activity increases in the carboxy-esters-substituent(s) order: —CH3<—C2H5<—C4H9 (PR73 SC<PR73 SB<PR73 SA).
In vitro activity may be measured by the dose-dependent loss of fluorescence of cells engineered to display ferroportin fused to green fluorescent protein as in Nemeth et al. (2006) Blood 107:328-33.

[2] = serum iron in C57BL/6 mice after intraperitoneal peptide injection; format: in vivo; conditions: 50-100 nmoles/mouse, vs PBS-injected mice
Procedure: Based on in vitro results, PR73SH was selected as a suitable candidate for animal studies, which were carried out as previously described. See Preza, et al. (2011) J. Clin. Invest. 121:4880; Ramos, et al. (2012) Blood 120:3829; and Nemeth, et al. (2006) Blood 107:328. Animal studies were approved by the Animal Research Committee at UCLA. Briefly, C57BL/6 mice were obtained from The Jackson Laboratory (Bar Harbor, Me.) and were maintained on NIH 31 rodent diet (iron content 336 mg/kg; Harlan Teklad, Indianapolis, […]). Mice were injected intraperitoneally either with 100 μL PBS (control) or with 50 or 100 nmoles peptide in 100 μL PBS. Mice were killed 6, 24, and 48 hours later, blood was collected by cardiac puncture, and serum was separated using Microtainer tubes (Becton Dickinson, Franklin Lakes, N.J.). Serum iron was determined by using a colorimetric assay (Diagnostic Chemicals, Oxford, Conn.), which was modified for the microplate format so that 50 μL serum was used per measurement. See Nemeth, et al. (2004) J. Clin. Invest. 113(9): 1271-1276. The results were expressed as the percentage of decrease in serum iron when compared with the average value of serum iron levels in PBS-injected mice.
In vivo activity of PR73SH and PR73 was compared by assaying serum iron levels at 3 time points: (6, 24, and 48 hours) and concentrations that were previously shown to be sufficient for PR73 to exert potent bioactivity (50-100 nmoles/mouse).

[3] = storage stability in DMSO (LC/MS/MS); format: physicochemical; conditions: 10 mM solution, room temperature, 30 days
Text: Thus, the present invention also provides storage stable compositions comprising one or more S-alkylated hepcidin peptides.

[4] = peptide treatment 24 hours, loss of GFP fluorescence relative to Hep25, read-out: EC50 [nM] TREX-hFpn-GFP cells

Compound: CCCCCCCCCCCCCCCCNC(=O)CN(CC(N)=O)C(=O)CCCCCNC(=O)C[C@H](Cc1ccccc1)NC(=O)[C@H](CCCNC(=N)N)NC(=O)[C@H](CS)NC(=O)[C@H](CCCNC(=N)N)NC(=O)C[C@@H]1CCCN1C(=O)[C@@H](NC(=O)[C@H](Cc1c[nH]cn1)NC(=O)[C@@H](NC(=O)CNCC(=O)O)[C@@H](C)O)C(c1ccccc1)c1ccccc1 [PR73, reference compound]
- EC50 [1, 4]: 4.2 ± 0.3 nM
- serum iron ([2]; 6 hour time point): decreased serum iron
- serum iron ([2]; 24 hour time point): decreased serum iron

Compound: CCCCCCCCCCCCCCCCNC(=O)CN(CC(N)=O)C(=O)CCCCCNC(=O)C[C@H](Cc1ccccc1)NC(=O)[C@H](CCCNC(=N)N)NC(=O)[C@H](CSC(=CC(=O)OCC)C(=O)OCC)NC(=O)[C@H](CCCNC(=N)N)NC(=O)C[C@@H]1CCCN1C(=O)[C@@H](NC(=O)[C@H](Cc1c[nH]cn1)NC(=O)[C@@H](NC(=O)CNCC(=O)O)[C@@H](C)O)C(c1ccccc1)c1ccccc1 [PR73SB]
- DC50 [1, 4]: 10.4 ± 1.2 nM

Compound: CCCCCCCCCCCCCCCCNC(=O)CN(CC(N)=O)C(=O)CCCCCNC(=O)C[C@H](Cc1ccccc1)NC(=O)[C@H](CCCNC(=N)N)NC(=O)[C@H](CSC(=CC(=O)OC)C(=O)OC)NC(=O)[C@H](CCCNC(=N)N)NC(=O)C[C@@H]1CCCN1C(=O)[C@@H](NC(=O)[C@H](Cc1c[nH]cn1)NC(=O)[C@@H](NC(=O)CNCC(=O)O)[C@@H](C)O)C(c1ccccc1)c1ccccc1 [PR73SC]
- DC50 [1, 4]: 12.6 ± 1.8 nM

Compound: CCCCCCCCCCCCCCCCNC(=O)CN(CC(N)=O)C(=O)CCCCCNC(=O)C[C@H](Cc1ccccc1)NC(=O)[C@H](CCCNC(=N)N)NC(=O)[C@H](CSC=CC(=O)O)NC(=O)[C@H](CCCNC(=N)N)NC(=O)C[C@@H]1CCCN1C(=O)[C@@H](NC(=O)[C@H](Cc1c[nH]cn1)NC(=O)[C@@H](NC(=O)CNCC(=O)O)[C@@H](C)O)C(c1ccccc1)c1ccccc1 [PR73SD]
- DC50 [1, 4]: 218 ± 13.4 nM

Compound: CCCCCCCCCCCCCCCCNC(=O)CN(CC(N)=O)C(=O)CCCCCNC(=O)C[C@H](Cc1ccccc1)NC(=O)[C@H](CCCNC(=N)N)NC(=O)[C@H](CSC(=CS(=O)(=O)C(C)(C)C)S(=O)(=O)C(C)(C)C)NC(=O)[C@H](CCCNC(=N)N)NC(=O)C[C@@H]1CCCN1C(=O)[C@@H](NC(=O)[C@H](Cc1c[nH]cn1)NC(=O)[C@@H](NC(=O)CNCC(=O)O)[C@@H](C)O)C(c1ccccc1)c1ccccc1 [PR73SF]
- DC50 [1, 4]: 10 ± 3.4 nM

Compound: CCCCCCCCCCCCCCCCNC(=O)CN(CC(N)=O)C(=O)CCCCCNC(=O)C[C@H](Cc1ccccc1)NC(=O)[C@H](CCCNC(=N)N)NC(=O)[C@H](CSC(=CC(N)=O)C(N)=O)NC(=O)[C@H](CCCNC(=N)N)NC(=O)C[C@@H]1CCCN1C(=O)[C@@H](NC(=O)[C@H](Cc1c[nH]cn1)NC(=O)[C@@H](NC(=O)CNCC(=O)O)[C@@H](C)O)C(c1ccccc1)c1ccccc1 [PR73SG]
- DC50 [1, 4]: 8.4 ± 2.5 nM

Compound: CCCCCCCCCCCCCCCCNC(=O)CN(CC(N)=O)C(=O)CCCCCNC(=O)C[C@H](Cc1ccccc1)NC(=O)[C@H](CCCNC(=N)N)NC(=O)[C@H](CSC(=CP(=O)(OCC)OCC)P(=O)(OCC)OCC)NC(=O)[C@H](CCCNC(=N)N)NC(=O)C[C@@H]1CCCN1C(=O)[C@@H](NC(=O)[C@H](Cc1c[nH]cn1)NC(=O)[C@@H](NC(=O)CNCC(=O)O)[C@@H](C)O)C(c1ccccc1)c1ccccc1 [PR73SH]
- DC50 ([1]; read-out: EC50 [nM] TREX-hFpn-GFP cells, peptide treatment 24 hours, loss of GFP fluorescence relative to Hep25): 1.1 ± 0.1 nM
- serum iron ([2]; 6 hour time point): decreased serum iron
- serum iron ([2]; 24 hour time point): decreased serum iron
- stability [3]: 99.5±0.5%
